From patent US9783537B2, “3-(4-ethylnylphenyl) pyridopyrimidinone compounds and process for preparation thereof useful as potential anticancer agents” (Council of Scientific & Industrial Research, priority 2013, dated 2017)
Read-outs that look alike come from different tables or passages of the source.

How the values were obtained:
[1] = system: six leukemia cancer cell lines (CCRF-CEM, HL-60, K-562, MOLT-4, SR and RPMI-8226); experiment: in vitro anticancer activity, leukemia panel; assay type: cell-based; settings: Homo sapiens, exposure at least 48 h, read-out: GI50, range over panel
[2] = in vitro anticancer activity, non-small cell lung panel; assay type: cell-based; settings: Homo sapiens; nine non-small cell lung cancer cell lines, exposure at least 48 h; read-out: GI50, range over panel
SNB-19 = experiment: SRB 48 h growth assay, CNS SNB-19; assay type: cell-based, human; settings: SNB-19, CNS
NCI-H322M = experiment: SRB 48 h growth assay, Non-small Cell Lung NCI-H322M; assay type: cell-based, human
UACC-257 = experiment: SRB 48 h growth assay, Melanoma UACC-257; assay type: cell-based, human; settings: Homo sapiens, UACC-257, Melanoma
[3] = in vitro anticancer activity, melanoma panel; assay type: cell-based; settings: Homo sapiens; nine melanoma cell lines, exposure at least 48 h; read-out: GI50, range over panel
NCI/ADR-RES = experiment: SRB 48 h growth assay, Ovarian NCI/ADR-RES; assay type: cell-based, human
COLO 205 = experiment: SRB 48 h growth assay, Colon COLO 205; assay type: cell-based, human; settings: COLO 205, Colon
KM12 = experiment: SRB 48 h growth assay, Colon KM12; assay type: cell-based, human
SK-OV-3 = experiment: SRB 48 h growth assay, Ovarian SK-OV-3; assay type: cell-based, human; settings: SK-OV-3, Ovarian
HCT-116 = experiment: SRB 48 h growth assay, Colon HCT-116; assay type: cell-based, human; settings: Homo sapiens, HCT-116, Colon
MDA-MB-468 = experiment: SRB 48 h growth assay, Breast MDA-MB-468; assay type: cell-based, human; settings: MDA-MB-468, Breast
UO-31 = experiment: SRB 48 h growth assay, Renal UO-31; assay type: cell-based, human; settings: UO-31, Renal
SNB-75 = experiment: SRB 48 h growth assay, CNS SNB-75; assay type: cell-based, human; settings: SNB-75, CNS
LOX IMVI = experiment: SRB 48 h growth assay, Melanoma LOX IMVI; assay type: cell-based, human
SK-MEL-5 = experiment: SRB 48 h growth assay, Melanoma SK-MEL-5; assay type: cell-based, human; settings: SK-MEL-5, Melanoma
NCI-H226 = experiment: SRB 48 h growth assay, Non-small Cell Lung NCI-H226; assay type: cell-based, human; settings: Homo sapiens
OVCAR-3 = experiment: SRB 48 h growth assay, Ovarian OVCAR-3; assay type: cell-based, human; settings: Homo sapiens, OVCAR-3, Ovarian
SF-539 = experiment: SRB 48 h growth assay, CNS SF-539; assay type: cell-based, human; settings: SF-539, CNS
IGROV1 = experiment: SRB 48 h growth assay, Ovarian IGROV1; assay type: cell-based, human
SK-MEL-28 = experiment: SRB 48 h growth assay, Melanoma SK-MEL-28; assay type: cell-based, human; settings: SK-MEL-28, Melanoma
[4] = system: eight renal cancer cell line (786-0, A498, ACHN, CAKI-1, SN12C, TK-10, UO-31 and RXF 393); experiment: in vitro anticancer activity, renal panel; assay type: cell-based; settings: Homo sapiens; eight renal cancer cell lines, exposure at least 48 h; read-out: in vitro anticancer activity, range over panel
HL-60(TB) = experiment: SRB 48 h growth assay, Leukemia HL-60(TB); assay type: cell-based, human
OVCAR-8 = experiment: SRB 48 h growth assay, Ovarian OVCAR-8; assay type: cell-based, human; settings: OVCAR-8, Ovarian
HOP-92 = experiment: SRB 48 h growth assay, Non-small Cell Lung HOP-92; assay type: cell-based, human; settings: HOP-92, Non-small Cell Lung
SW-620 = experiment: SRB 48 h growth assay, Colon SW-620; assay type: cell-based, human; settings: Homo sapiens, SW-620, Colon
[5] = Homo sapiens, read-out: Growth Inhibition GI50
[6] = Homo sapiens, read-out: Log10 LC50 (converted)
[7] = Homo sapiens, read-out: Log10 GI50 (converted)
[8] = read-out: Growth Inhibition GI50
[9] = read-out: Log10 GI50 (converted)

Structure (SMILES): C#Cc1ccc(-n2c(/C=C/c3ccc4ccccc4c3)nc3ncccc3c2=O)cc1 [4s, (E)-3-(4-Ethynylphenyl)-2-(2-(naphthalen-2-yl)vinyl)pyrido[2,3-d]pyrimidin-4(3H)-one]
- GI50 [1]: 260 to 450 nM
- GI50 [2]: 180 to 700 nM
- GI50 (SNB-19; [5]): 2950 nM
- CC50 (SNB-19; [6]): > 100000 nM
- Log10 TGI50 (SNB-19): >−4.00
- Log10 TGI50 (NCI-H322M): >−4.00
- GI50 (NCI-H322M; [5]): 7300 nM
- GI50 (NCI-H322M; [7]): 7240 nM
- CC50 (NCI-H322M; [6]): > 100000 nM
- GI50 (UACC-257; [8]): 2110 nM
- GI50 (UACC-257; [9]): 2090 nM
- GI50 [3]: 190 to 1210 nM
- Log10 TGI50 (NCI/ADR-RES): >−4.00
- GI50 (NCI/ADR-RES; [5]): 3290 nM
- GI50 (NCI/ADR-RES; [7]): 3310 nM
- CC50 (NCI/ADR-RES; [6]): > 100000 nM
- Log10 TGI50 (COLO 205): −5.44
- GI50 (COLO 205; [5]): 2060 nM
- GI50 (COLO 205; [7]): 2040 nM
- CC50 (COLO 205; [6]): 3630 nM
- Log10 TGI50 (KM12): >−4.00
- GI50 (KM12; [5]): 2950 nM
- GI50 (KM12; [7]): 2950 nM
- CC50 (KM12; [6]): > 100000 nM
- GI50 (SK-OV-3; [5]): 7550 nM
- GI50 (SK-OV-3; [7]): 7590 nM
- CC50 (SK-OV-3; [6]): > 100000 nM
- Log10 TGI50 (SK-OV-3): >−4.00
- GI50 (HCT-116; [8]): 2220 nM
- GI50 (HCT-116; [9]): 2240 nM
- GI50 (MDA-MB-468; [5]): 960 nM
- GI50 (MDA-MB-468; [7]): 955 nM
- CC50 (MDA-MB-468; [6]): 7760 nM
- Log10 TGI50 (MDA-MB-468): −5.11
- GI50 (UO-31; [5]): 3110 nM
- GI50 (UO-31; [7]): 3090 nM
- CC50 (UO-31; [6]): > 100000 nM
- Log10 TGI50 (UO-31): >−4.00
- GI50 (SNB-75; [5]): 3690 nM
- GI50 (SNB-75; [7]): 2950 nM
- CC50 (SNB-75; [6]): > 100000 nM
- Log10 TGI50 (SNB-75): >−4.00
- Log10 TGI50 (LOX IMVI): −5.51
- GI50 (LOX IMVI; [5]): 510 nM
- GI50 (LOX IMVI; [7]): 513 nM
- CC50 (LOX IMVI; [6]): 3090 nM
- GI50 (SK-MEL-5; [5]): 1160 nM
- GI50 (SK-MEL-5; [7]): 1150 nM
- CC50 (SK-MEL-5; [6]): 2510 nM
- Log10 TGI50 (SK-MEL-5): −5.60
- GI50 (NCI-H226; [8]): 2330 nM
- GI50 (NCI-H226; [9]): 2340 nM
- GI50 (OVCAR-3; [8]): 2040 nM
- GI50 (OVCAR-3; [9]): 2040 nM
- GI50 (SF-539; [5]): 2910 nM
- GI50 (SF-539; [7]): 2880 nM
- CC50 (SF-539; [6]): > 100000 nM
- Log10 TGI50 (SF-539): >−4.00
- Log10 TGI50 (IGROV1): >−4.00
- GI50 (IGROV1; Homo sapiens, IGROV-1, read-out: Growth Inhibition GI50): 2920 nM
- GI50 (IGROV1; Homo sapiens, IGROV-1, read-out: Log10 GI50 (converted)): 2950 nM
- CC50 (IGROV1; Homo sapiens, IGROV-1, read-out: Log10 LC50 (converted)): > 100000 nM
- GI50 (SK-MEL-28; [5]): 4330 nM
- GI50 (SK-MEL-28; [7]): 4370 nM
- CC50 (SK-MEL-28; [6]): > 100000 nM
- Log10 TGI50 (SK-MEL-28): >−4.00
- GI50 [4]: 220 to 430 nM
- Log10 TGI50 (HL-60(TB)): −5.05
- GI50 (HL-60(TB); [5]): 1660 nM
- GI50 (HL-60(TB); [7]): 1660 nM
- CC50 (HL-60(TB); [6]): 8910 nM
- GI50 (OVCAR-8; [5]): 3050 nM
- GI50 (OVCAR-8; [7]): 3020 nM
- CC50 (OVCAR-8; [6]): > 100000 nM
- Log10 TGI50 (OVCAR-8): >−4.00
- Log10 TGI50 (HOP-92): −5.16
- GI50 (HOP-92; [5]): 1630 nM
- GI50 (HOP-92; [7]): 1620 nM
- CC50 (HOP-92; [6]): 6920 nM
- GI50 (SW-620; [8]): 2220 nM
- GI50 (SW-620; [9]): 2240 nM
